In patent US20220409535A1, “BIOLOGICAL AGENT-EXOSOME COMPOSITIONS AND USES THEREOF” (The University of North Carolina at Chapel Hill, priority 2016, published 2022):
Values after ≈ are worked out from the molar mass of the structure shown.

Assays:
[1] = test system: 3LL-M27; assay: In vitro cytotoxicity (MTT), 3LL-M27; format: cell-based, murine; conditions: Mus musculus; 3LL-M27, 48 hours
Experimental: (§1) Briefly, cancer cells (MDCKMDR1, MDCKwt, and 3LL-M27) were seeded at 5,000 cells/well in 100 μL of media in 96-well plates overnight. […] Following the incubation, the cells were washed and incubated with MTT reagent as described in Batrakova et al., Mol. Pharm. 3:113 (2006) Epub 2006/04/04. The cytotoxic activity of PTX was then evaluated using a standard MTT assay (Ferrari et al., J. Immunol. Meth. 131:165 (1990)). The absorbance at 570 nm was measured using a Shimadzu RF5000 fluorescent spectrophotometer. The survival values were determined in relation to control cells cultured in drug-free media. All experiments were repeated at least three times. SEM values were less than 10%.

[2] = test system: MDCK wt; assay: In vitro cytotoxicity (MTT), MDCK wt; format: cell-based, canine; conditions: Canis lupus familiaris, 48 hours
Experimental: as §1

[3] = test system: MDCK MDR1; assay: In vitro cytotoxicity (MTT), MDCK MDR1; format: cell-based, canine; conditions: Canis lupus familiaris; MDCK MDR1, 48 hours
Experimental: as §1

[4] = test system: sigma receptor; assay: Receptor competitive inhibition by free anisamide; format: cell-based, murine; conditions: 3LL-M27 cells, one hour
Experimental: Receptor Competitive Inhibition. To determine whether AA-vectorized exosomes to sigma receptor were accumulated in cancer cells via receptor-mediated endocytosis, a receptor competitive inhibition study was carried out. For this purpose, first a lipophilic fluorescent dye, DiL, was incorporated into exosome membranes. Briefly, the supernatant of RAW 264.7 macrophage conditioned media free of cells and cellular debris was filtered with a 0.22 μm PES filter and incubated with DiL dye (4 μM) at 37° C. for 20 min. Following a 20-minute incubation, ExoQuick-TC™ exosome precipitation solution was added to the filtered supernatant, the mixture was vortexed, and incubated overnight at 4° C. Then, the mixture was vortexed again and subsequently centrifuged at 1500×g for 30 minute to pellet exosomes. The supernatant was discarded and the exosome pellet was re-suspended in PBS. Freshly-prepared fluorescently labeled exosomes or exosomes stored at −20° C. were used for all experiments.
Next, 3LL-M27 cells were seeded overnight at 50,000 cells/well in a 96-well plate. […] The fluorescence levels in cell suspensions were measured by a Shimadzu RF5000 fluorescent spectrophotometer, and adjusted for protein content analyzed by BCA Assay using the Pierce BCA Protein Assay Kit (Thermo Fisher Scientific, Waltham, Mass., USA). […]

| SMILES | IC50 [1] [µg/mL] | IC50 [2] [µg/mL] | IC50 [3] [µg/mL] | competitive inhibition of uptake by free AA [4] |
| --- | --- | --- | --- | --- |
| CC(=O)O[C@H]1C(=O)[C@@]2(C)[C@H]([C@H](OC(=O)c3ccccc3)[C@]3(O)C[C@H](OC(=O)[C@H](O)[C@@H](NC(=O)c4ccccc4)c4ccccc4)C(C)=C1C3(C)C)[C@]1(OC(C)=O)CO[C@@H]1C[C@@H]2O [PTX, paclitaxel] | 0.126 ± 0.0313 (≈ 0.148 µM) | 0.429 ± 0.0634 (≈ 0.502 µM) | > 10 |  |
| COc1ccc(C(N)=O)cc1 [free AA, anisamide] |  |  |  | not able completely inhibit exosome uptake |
